Measurements as given in patent publication US7101878B1 (Agouron Pharmaceuticals, Inc., priority 1998, dated 2006).
pKi: −log10 of the molar value.

Columns and labels:
[1] = Metabolism rate, pmol/min/mg at 1 μM, rat male; assay type: in vitro ADME; conditions: 1 μM compound
5-HT2a = 5-HT2a (Homo sapiens, UniProt P28223); assay: Selectivity: 5-HT2a
rat GnRH receptor = target: T1, rat GnRH receptor (Rattus norvegicus, UniProt P30969); assay: Microphysiometry, extracellular acidification rate, GGH3 cells; assay type: cell-based; conditions: rat, pH (microphysiometry)
T1 sequence (P30969 1-327): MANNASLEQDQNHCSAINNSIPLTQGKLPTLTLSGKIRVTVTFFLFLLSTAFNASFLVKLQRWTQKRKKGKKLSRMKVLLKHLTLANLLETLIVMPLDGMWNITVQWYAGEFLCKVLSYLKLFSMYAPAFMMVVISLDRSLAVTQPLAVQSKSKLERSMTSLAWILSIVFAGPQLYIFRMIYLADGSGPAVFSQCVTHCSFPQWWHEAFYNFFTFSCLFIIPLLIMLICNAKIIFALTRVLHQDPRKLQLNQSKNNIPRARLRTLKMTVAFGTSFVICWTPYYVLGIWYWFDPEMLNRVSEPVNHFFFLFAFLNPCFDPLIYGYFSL
Protocol: These cells have been extensively characterized previously (Kaiser et al., 1997). These cells were grown in low glucose Dulbecco's modified Eagle's medium (DMEM) containing: 100U/mL penicillin/streptomycin, 0.6 g/L G418 and 10% beat-inactivated fetal bovine serum
This cell line was provided by Dr. Stuart Sealfon, Mount Sinai Medical School New York, N.Y. These cells were grown in DMEM supplemented with 0.2 g/L G418 100 U/ml penicillin/streptomycin and 10% FBS. Both GGH3 and hGnRH-R/293 cells were utilized for both for both total inositol phosphate measurement and for microphysiometry assessment of compound efficacy.
The Cytosensor®Microphysiometer (Molecular Devices, Sunnyvale, Calif.) is a real-time, noninvasive, nonradioactive semiconductor-based system for monitoring the cellular responses to various stimuli. It is based on a pH-sensitive silicon sensor, the light-addressable potentiometric sensor which forms part of a microvolume flow chamber in which cultured cells are immobilized (Pitchford et al., 1995; Parce et al., 1989; Owicki, et al. 1994).
GGH3 cells were seeded in low-buffered minimal essential media (MEM, Sigma) containing 25 mM NaCl and 0.1% BSA at a density of 500,000 cells/capsule onto the polycarbonate membrane (3 μm porosity) of cell capsule cups (Molecular Devices, Sunnyvale, Calif.). Capsule cups were transferred to sensor chambers where cells were held in close apposition to a silicon sensor within a sensor chamber, which measures small changes in pH in the microvolume of the sensor chamber. Low-buffered medium was pumped continuously across the cells at a rate of approximately 100 μl/min from one of two fluid reservoirs. A selection valve determined which reservoir from which fluid was perifused onto the cells.
The Cytosensor®Microphysiometer generates a voltage signal, which is a linear function of pH, every second. In order to measure acidification rates, flow to the sensor chamber containing the cells was periodically interrupted, allowing for excreted acidic metabolites to build up in the extracellular fluid of the cells. In these experiments, cells were maintained at 37° C. on a two minute flow cycle with cells being perfused with media for 80 seconds followed by 40 seconds in which the flow of media was stopped. During this 40 second interval, acidification rates were measured for a 30 sec interval. In this fashion, a single acidification rate was calculated every two min. The Cytosensor®Microphysiometer device contains eight such sensor units, allowing for eight simultaneous experiments to be performed. Each unit was individually programmed utilizing a computer linked to the system.
GGH3 cells were initially equilibrated in the low-buffered MEM media for a period of 30-60 min in which basal acidification rates (measured as μV/sec), in the absence of any stimuli, were monitored. When the basal rate of acidification changed by less than ten percent over a period of twenty minutes, experiments were initiated. Time course experiments were performed to determine the optimal time for agonist exposure prior to acidification rate measurement and the duration of exposure needed to obtain peak acidification responses to various agonists. From these time course experiments, it was determined that cells should be exposed to GnRH peptide agonists at least one minute prior to collection of acidification rate data. Peak acidification rates usually occurred in the first two-minute exposure cycle. In order to capture the peak response to GnRH, cells were exposed to the agonist for a total of four minutes. […] All compounds were tested in a final concentration of 1% DMSO in low-buffered MEM media described above.

[2] = system: LH levels in castrated rats; assay: Castrated male rat model, LH suppression; assay type: in vivo
In short: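 Castrated male Sprague-Dawley rats, catheterised, given vehicle or compound iv, im, ip, sc or po after basal sampling (one protocol: 10 mg/kg iv in 10% DMSO/10% cremophor/saline). Blood drawn at multiple times up to 240 min. Serum or plasma LH measured by coated-tube immunoradiometric assay.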

[3] = Metabolism rate, pmol/min/mg at 1 μM, monkey; assay type: in vitro ADME; conditions: 1 μM compound

Chain of 5-HT2a (P28223 whole entry, species assumed): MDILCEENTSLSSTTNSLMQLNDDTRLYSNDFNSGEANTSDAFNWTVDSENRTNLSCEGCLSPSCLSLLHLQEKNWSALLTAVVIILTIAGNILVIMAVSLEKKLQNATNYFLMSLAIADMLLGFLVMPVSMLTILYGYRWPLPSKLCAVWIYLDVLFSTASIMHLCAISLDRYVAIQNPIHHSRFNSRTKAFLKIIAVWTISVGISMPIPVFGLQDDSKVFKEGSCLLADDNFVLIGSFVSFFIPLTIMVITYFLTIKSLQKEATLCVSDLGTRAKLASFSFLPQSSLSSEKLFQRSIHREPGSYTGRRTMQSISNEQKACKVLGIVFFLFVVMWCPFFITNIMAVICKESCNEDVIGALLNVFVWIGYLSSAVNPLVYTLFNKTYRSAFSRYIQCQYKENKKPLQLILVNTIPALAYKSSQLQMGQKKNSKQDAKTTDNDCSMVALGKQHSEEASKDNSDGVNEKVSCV

SMILES: COc1cc(OC)c(NC(=O)c2ccc(Cc3cc4c(cc3C)C(C)(C)CCC4(C)C)o2)c(OC)c1 [Compound 134]
- Rat male pmol/min/mg 1 μM [1]: 3909 pmol/min/mg
- pKi (5-HT2a): 5.43
- Kb (rat GnRH receptor): 13 nM
- % Max LH Suppression ([2]; 1.0 mg/kg iv): 24%
- time of % Max LH Suppression ([2]; 1.0 mg/kg iv): 0.5 h
- % Max LH Suppression ([2]; 5.0 mg/kg iv): 70%
- time of % Max LH Suppression ([2]; 5.0 mg/kg iv): 0.5 h
- % Max LH Suppression ([2]; 10 mg/kg iv): 100%
- time of % Max LH Suppression ([2]; 10 mg/kg iv): 0.5 h
- ≧50% Suppression Duration ([2]; 10 mg/kg iv): 2 h
- % Max LH Suppression ([2]; 20 mg/kg im): 73%
- LH in CX rats ([2]; 20 mg/kg im): suppresses LH
- time of % Max LH Suppression ([2]; 20 mg/kg im): 2 h
- ≧50% Suppression Duration ([2]; 20 mg/kg im): 8 h
- % Max LH Suppression ([2]; 20 mg/kg ip): 80%
- time of % Max LH Suppression ([2]; 20 mg/kg ip): 2 h
- ≧50% Suppression Duration ([2]; 20 mg/kg ip): 4 h
- % Max LH Suppression ([2]; 20 mg/kg po): 62%
- time of % Max LH Suppression ([2]; 20 mg/kg po): 4 h
- ≧50% Suppression Duration ([2]; 20 mg/kg po): 4 h
- % Max LH Suppression ([2]; 20 mg/kg sc): 53%
- time of % Max LH Suppression ([2]; 20 mg/kg sc): 8 h
- ≧50% Suppression Duration ([2]; 20 mg/kg sc): 8 h
- % Max LH Suppression ([2]; 100 mg/kg im): 98%
- time of % Max LH Suppression ([2]; 100 mg/kg im): 2 to 24 h
- ≧50% Suppression Duration ([2]; 100 mg/kg im): 24 h
- % Max LH Suppression ([2]; 100 mg/kg ip): 98%
- time of % Max LH Suppression ([2]; 100 mg/kg ip): 4 h
- ≧50% Suppression Duration ([2]; 100 mg/kg ip): 8 h
- % Max LH Suppression ([2]; 100 mg/kg po): 84%
- time of % Max LH Suppression ([2]; 100 mg/kg po): 4 h
- ≧50% Suppression Duration ([2]; 100 mg/kg po): 8 h
- % Max LH Suppression ([2]; 100 mg/kg sc): 80%
- time of % Max LH Suppression ([2]; 100 mg/kg sc): 6 h
- ≧50% Suppression Duration ([2]; 100 mg/kg sc): 8 h
- LH in CX rats ([2]; 1.0, 5.0 & 10 mg/kg, iv): dose-dependent suppression of LH
- LH in CX rats ([2]; 20 or 100 mg/kg, ip): suppresses LH
- Monkey pmol/min/mg 1 μM [3]: 9277 pmol/min/mg
